Laboratory results as given in patent publication US8404664B2, “Phosphonated Rifamycins and uses thereof for the prevention and treatment of bone and joint infections” (Targanta Therapeutics, Inc., priority 2005, dated 2013).
In brackets after ≈: the same amount, converted by molar mass.

Experiments:
S. aureus ATCC 13709 [1] = assay: Antibacterial susceptibility (MIC) in the presence of serum; type: cell-based; settings: for MIC: Staphylococcus aureus, ATCC13709, 18 h
[2] = Regeneration of drug from bone powder-bound prodrug; type: in vitro ADME; settings: for % Conversion of bone-bound prodrug to parent drug: 24 h incubation, 37° C.; for Impact of the medium on the rate of regeneration of parent drug (in words): serum compared to PBS
S. aureus RN4220 = assay: Antibacterial susceptibility (MIC), NCCLS broth microdilution; type: cell-based; settings: CAMHB, 37° C., 18 h
Method in brief: (§1)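 Two-fold serial dilutions in DMSO tested in cation-adjusted Mueller Hinton broth per NCCLS M26-A, 5×10^5 c.f.u./mL inoculum, 1.25% final DMSO, duplicates.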

S. aureus ATCC 13709 [3] = assay: as above; type: cell-based; settings: for Antibacterial activity (in words, summary of Table 1): summary over the strains of Table 1
Method in brief: as §1

[4] = tested on: S. aureus ATCC 43300 (Fluoroquinolone sensitive MRSA); assay: as above; type: cell-based
Method in brief: as §1

[5] = tested on: S. aureus BK85 (Fluoroquinolone resistant MRSA); assay: as above; type: cell-based
Method in brief: as §1

[6] = tested on: E. coli LBB925 (tolC mutant); assay: as above; type: cell-based; settings: for Minimum inhibitory concentration, E. coli LBB925: tolC mutant
[7] = tested on: S. aureus (chronic bone infection); assay: Treatment of chronic osteomyelitis caused by S. aureus in rat model; type: in vivo; settings: for Effect on bacterial titer in bone infection versus the untreated control (figure legends) / Decrease in bacterial titer: prodrug iv at 20 mg/kg parent equivalent; for Effect on bacterial titer in bone infection versus the untreated control (figure legends): regimen of the figure, 4 weeks post-infection; for Decrease in bacterial titer: q24hx4+q4 days, FIGS. 3, 4, 5
Source text: To appraise the ability of bisphosphonated prodrugs of Rifamycin derivatives in treating chronic bone infections, a comparison was made between parent compounds 9, 56, 69, rifabutin and rifalazil (all of which are non-bisphosphonated rifamycin derivatives), and their corresponding bisphosphonated prodrugs, respectively 11, 62, 71, 36 and 81, when used to treat chronically (14- to 28-day) infected rats for 4 weeks of antimicrobial therapy.
In this experiment, rats were infected as described in Example 4 and treated with either 20 mg/kg of body weight of the specific rifamycin derived antibacterial agent subcutaneously, or a molar equivalent dose of its bisphosphonated prodrug intravenously according to the indicated schedule after instillation of bacteria. The standard controls involving no treatment and a subcutaneous treatment of 20 mg/kg of Rifampicin daily were also included. The rats were humanely sacrificed at the conclusion of the experiment and the bacterial titers in the infected tibiae were determined.
This experiment was performed with 20 mg/kg of body weight of rifamycin derivative 9 subcutaneously or with 32 mg/kg of its prodrug 11 (corresponding to 20 mg/kg of 9) intravenously on each of the 20th, 24th, 28th, 32nd, 36th, 40th and […] days (q4 days) after instillation of bacteria. Alternatively, 11 was administered by the same route and at the same dose on the 20th, 21st, 22nd, 23rd, 30th, 37th, 44th and 47th days (q24hx4+q7d) after the instillation of bacteria. The same controls (no treatment or daily subcutaneous 20 mg/kg dose of rifampicin) were used. The rats were humanely sacrificed on the 48th day after the initiation of infection and the bacterial titers in the infected tibiae were determined.
This experiment was also executed in which similarly infected rats were treated with either 20 mg/kg of body weight of rifabutin subcutaneously or with 33.4 mg/kg of its prodrug 36 (corresponding to 20 mg/kg of rifabutin) intravenously on each of the 28th, 32nd, 36th, 40th, 44th, 48th and 52nd days (q4 days) after instillation of bacteria. The same controls (no treatment or daily subcutaneous 20 mg/kg dose of rifampicin) were used. The rats were humanely sacrificed on the 55th day after the initiation of infection and the bacterial titers in the infected tibiae were determined.
This experiment was also executed in which similarly infected rats were treated with either 20 mg/kg of body weight of the rifamycin derived antibacterial agent 56 subcutaneously or with 26 mg/kg of its prodrug 62 (corresponding to 20 mg/kg of 56) intravenously on each of the 27th, 28th, 29th, 30th, 34th, 38th, 42nd, 46th and 50th days (q24hx4+q4 days) after instillation of bacteria. The same controls (no treatment or daily subcutaneous 20 mg/kg dose of rifampicin) were used. The rats were humanely sacrificed on the 51^St day after the initiation of infection and the bacterial titers in the infected tibiae were determined.
This experiment was also executed in which similarly infected rats were treated with either 20 mg/kg of body weight of the rifamycin derived antibacterial agent 69 subcutaneously or with 28 mg/kg of its prodrug 71 (corresponding to 20 mg/kg of 69) intravenously on each of the 18th, 19th, 20th, 21st, 25th, 29th, 33rd, 37th, 41st and 45th days (q24hx4+q4 days) after instillation of bacteria. The same controls (no treatment or daily subcutaneous 20 mg/kg dose of rifampicin) were used. The rats were humanely sacrificed on the 46th day after the initiation of infection and the bacterial titers in the infected tibiae were determined.

[8] = tested on: S. aureus ATCC 13709 Novobiocin and Rifampicin resistant variant; assay: microbe, parasite or virus in culture; type: cell-based; settings: for Minimum inhibitory concentration, S. aureus ATCC 13709 variant: Novobiocin and Rifampicin resistant variant
Method in brief: as §1

[9] = FIG. 1: 9 20 mg/kg sc q4 days, 11 32 mg/kg iv q4d or q24hx4+q7d

Row | Molecule | Minimum inhibitory concentration, S. aureus ATCC 13709 + 50% Human Serum (S. aureus ATCC 13709 [1]) [µg/mL] | Minimum inhibitory concentration, S. aureus ATCC 13709 + 50% Mouse Serum (S. aureus ATCC 13709 [1]) [µg/mL] | Minimum inhibitory concentration, S. aureus ATCC 13709 + 50% Rat Serum (S. aureus ATCC 13709 [1]) [µg/mL] | Regeneration of parent drug once bound to bone (in words) [2] | % Conversion of bone-bound prodrug to parent drug ([2]; 50% Human Serum) [%] | % Conversion of bone-bound prodrug to parent drug ([2]; 50% Rat Serum) [%] | % Conversion of bone-bound prodrug to parent drug ([2]; PBS) [%] | Impact of the medium on the rate of regeneration of parent drug (in words) [2] | Minimum inhibitory concentration, S. aureus RN4220 (S. aureus RN4220) [ng/mL] | Minimum inhibitory concentration, S. aureus ATCC 13709 (S. aureus ATCC 13709 [3]) [ng/mL] | Minimum inhibitory concentration, S. aureus ATCC 43300 [4] [ng/mL] | Minimum inhibitory concentration, S. aureus BK85 [5] [ng/mL] | Minimum inhibitory concentration, E. coli LBB925 [6] [µg/mL] | Effect on bacterial titer in bone (in words) [7, 9] | Effect on bacterial titer in bone infection versus the untreated control (figure legends) [7] | Antibacterial activity (in words, summary of Table 1) (S. aureus ATCC 13709 [3]) | Activity against the Rifampicin resistant variant of S. aureus ATCC13709 (in words) [8] | Minimum inhibitory concentration, S. aureus ATCC 13709 variant [8] [µg/mL] | Decrease in bacterial titer [7] | further results
1 | 3-(((4-(2-(3-((bisphosphonomethyl)carbamoyl)propanoyloxy)ethyl)-1-piperazinyl)imino)methyl)rifamycin [Compound 11] | 0.25 | 0.25 | 0.25 | appreciable rates of regeneration | 1.01 | 1.01 | 0.97 | not significantly impacted | 250 | 125 | 250 | 250 | 32 | not statistically significant | small but not statistically significant effect | – | – | – | – | Impact of serum on the MICs (in words) (S. aureus ATCC 13709 [1]): no impact
2 | CO[C@H]1/C=C/O[C@@]2(C)Oc3c(C)c(O)c4c(O)c(c(/C=N/N5CCN(CCO)CC5)c(O)c4c3C2=O)NC(=O)/C(C)=C\C=C\[C@H](C)[C@H](O)[C@@H](C)[C@@H](O)[C@@H](C)[C@H](OC(C)=O)[C@@H]1C [Compound 9, 3-(((4-(2-hydroxyethyl)-1-piperazinyl)imino)methyl)rifamycin] | – | – | – | – | – | – | – | – | – | – | – | – | – | completely ineffective | – | – | – | – | – | MIC (S. aureus ATCC 13709 [1]; read-out: Minimum inhibitory concentration, S. aureus ATCC 13709 + 50% Human Serum): 0.062 µg/mL; MIC (S. aureus ATCC 13709 [1]; read-out: Minimum inhibitory concentration, S. aureus ATCC 13709 + 50% Mouse Serum): 0.062 µg/mL; MIC (S. aureus ATCC 13709 [1]; read-out: Minimum inhibitory concentration, S. aureus ATCC 13709 + 50% Rat Serum): 0.062 µg/mL; MIC (S. aureus RN4220; Staphylococcus aureus, RN4220, read-out: Minimum inhibitory concentration, S. aureus RN4220): 0.016 µg/mL (≈ 0.0188 µM); MIC (S. aureus ATCC 13709 [3]; Staphylococcus aureus, ATCC13709, read-out: Minimum inhibitory concentration, S. aureus ATCC 13709): 0.016 µg/mL (≈ 0.0188 µM); MIC ([4]; Staphylococcus aureus, read-out: Minimum inhibitory concentration, S. aureus ATCC 43300): 0.016 µg/mL (≈ 0.0188 µM); MIC ([5]; Staphylococcus aureus, read-out: Minimum inhibitory concentration, S. aureus BK85): 0.016 µg/mL (≈ 0.0188 µM); MIC ([6]; Escherichia coli, read-out: Minimum inhibitory concentration, E. coli LBB925): 16 µg/mL (≈ 18.8 µM); Effect on bacterial titer in bone (in words) ([7]; 20 mg/kg sc once daily, 15th to 28th day after infection, FIG. 6): smaller but still statistically significant reduction
3 | CO[C@H]1/C=C/O[C@@]2(C)Oc3c(C)c(O)c4c(=O)c(c5oc6cc(N7CCN(CCOC(=O)CCC(=O)NC(P(=O)(O)O)P(=O)(O)O)CC7)cc(O)c6nc-5c4c3C2=O)NC(=O)/C(C)=C\C=C\[C@H](C)[C@H](O)[C@@H](C)[C@@H](O)[C@@H](C)[C@H](OC(C)=O)[C@@H]1C.N.N [Compound 62] | 0.032 | 0.032 | 0.0156 | appreciable rates of regeneration | 0.86 | 0.91 | 0.21 | significant acceleration | 7.8 | 3.9 | 7.8 | 7.8 | >128 | – | small but statistically significant effect | very low MICs | complete lack of activity | >128 | approximately 1 logarithmic order of magnitude | –
4 | CO[C@H]1/C=C/O[C@@]2(C)Oc3c(C)c(O)c4c(=O)c(c5oc6cc(N7CCN(CCC(=O)c8ccc(OCCCC(P(=O)(O)O)P(=O)(O)O)cc8)CC7)cc(O)c6nc-5c4c3C2=O)NC(=O)/C(C)=C\C=C\[C@H](C)[C@H](O)[C@@H](C)[C@@H](O)[C@@H](C)[C@H](OC(C)=O)[C@@H]1C [Compound 71] | 0.032 | 0.032 | 0.032 | – | 0.46 | 0.38 | 0.1 | significant acceleration | 3.9 (≈ 0.00312 µM) | 1.9 (≈ 0.00152 µM) | 1.9 (≈ 0.00152 µM) | 1.9 (≈ 0.00152 µM) | >128 | – | small but statistically significant effect | very low MICs | complete lack of activity | 128 (≈ 102 µM) | approximately 1 logarithmic order of magnitude | –
